Data published in patent US20110212199A1, “AGENT FOR TREATING EYE DISEASES” (priority 2003, published 2011).
Entries after “also recorded” stand apart in the source; their conditions may differ.

Legend:
[1] = test system: intraocular pressure of house rabbit; test: Effects on intraocular pressure (animal experiment); type: in vivo, colored house rabbits
Experimental: For the experiments, five (10 eyes) colored house rabbits (body weight: 1.8 to 2 kg) with 8 months to 10 months from the birth were used. […] Intraocular pressure of the house rabbit before treating with eye drops/eye washes was 14 mmHg at 1 PM. […] The maximum dropping of the intraocular pressure appeared after 50 minutes from washing. Lowering effects of intraocular pressure continued at least up to after 5 hours from washing. […] This house rabbit was immediately washed again with the same eye drops/eye washes, intraocular pressure was lowered up to 13 mmHg after 45 minutes from washing. The house rabbit subjected to eye drops/eye washes treatment was allowed to stand, and intraocular pressure was measured next day at 9 AM, it was 18 mmHg, and the effects of eye drops/eye washes at the previous day remained. […] The effects of administration can be found to be continued for a long time.

[2] = test system: central chorioretinopathy (choriotetinitis); test: Example 31: central chorioretinopathy; type: in vivo, human
[3] = test system: Mooren's corneal ulcer; test: Example 18: corneal ulcer; type: in vivo, human; conditions: person, right eye; 1 mg/l, 1 drop (50 μl) twice a day
Text: Thus, it can be considered that treatment of autoimmune disease is possible.

[4] = test system: epidemic keratoconjunctivitis; test: Example 29: epidemic keratoconjunctivitis; type: in vivo, human
[5] = test system: iridocyclitis; test: Example 20: iridocyclitis; type: in vivo, human; conditions: person, right eye; 1 mg/l, 1 drop (50 μl) every morning; after 1 week
[6] = test system: presbyopia; test: Example 16: presbyopia, corrected near visual acuity; type: in vivo, human; conditions: after 14 days; before 0.4
Text: To […] with presbyopia having corrected near visual acuity (near vision after correction) before treatment of […]

[7] = test system: chorioretinal hemorrhage; test: Example 17: chorioretinal hemorrhage; type: in vivo, human; conditions: person, right eye; 1 mg/l, 1 drop (50 μl) once every morning, with Adona 30 mg a day orally
[8] = test system: asthenopia; test: Example 30: asthenopia; type: in vivo, human; conditions: person; 10 mg/l, once (50 μl) a day; 3 weeks
[9] = test system: presbyopia; test: Example 12: presbyopia, near point; type: in vivo, human; conditions: for near point, left eye: before 29 cm
Experimental: The patient is person of presbyopia having slight myopia of −2.5 dioptre and −1.0D of astigmatism. When a near point of the left eye of the patient was measured without lens correction, it was 29 cm. Water-soluble 17β-estradiol inclusion product (Cyclodextrin-encapsulated 17β-estradiol available from SIGMA CO. […] To the patient was dropped 1 drop (25 μl) of eye drops at 9 AM per each eye. […] Incidentally, the far point was 41±2 cm in average.

[10] = test system: schizophrenia; test: Example 22: central nerve diseases (schizophrenia patient); type: in vivo, human
[11] = test system: dynamic visual acuity; test: Example 26: dynamic visual acuity; type: in vivo, human; conditions: person, left eye; 10 μg/ml, 50 μl one time; 30 minutes to 1 hour and 15 minutes after dropping
[12] = test system: cataract in ultraviolet ray irradiated eyes of mouse; test: Treatment of cataract (animal experiment), UV-A+UV-B irradiation; type: in vivo
Experimental: Control group (Control): To eyes of mouse (4 eyes) were irradiated ultraviolet rays UV-A+UV-B (each 0.36J: 100 μW×1 hour) from 10 PM to 11 PM at the first day, the third day, the fifth day each once, and three times in total. Provided that, before 1 minute and after 1 minute of each ultraviolet ray irradiation, 1 drop (50 μl) of PBS (phosphate buffered physiological saline) was administered, and 1 drop of PBS was administered each once at the second day, the fourth day, the sixth day, the seventh day, the eighth day, the ninth day and the tenth day.
Pre-administered group of ultraviolet ray irradiation (Pre 0.1 g/l and Pre 0.01 g/l): To eyes of mouse were irradiated ultraviolet rays UV-A+UV-B (each 0.36J: 100 pW×1 hour) from 10 PM to 11 PM at the first day, the third day, the fifth day each once, and three times in total.
Post-administered group of ultraviolet ray irradiation (Post 0.1 g/l and Post 0.01 g/l): To eyes of mouse were irradiated ultraviolet rays UV-A+UV-B (each 0.36J: 100 μW×1 hour) from 10 PM to 11 PM at the first day, the third day and the fifth day each once, and three times in total.

[13] = test system: corneal endothelial cells; test: Example 27: regeneration and protection of corneal endothelial cells; type: in vivo, human; conditions: 10 days
Text: As a measurement device, NONCON ROBO (KONAN INC) specular microscope was used.

[14] = test system: photopsia; test: Example 28: photopsia; type: in vivo, human; conditions: person; 10 mg/l, 1 drop (50 μl) once a day for 3 weeks
[15] = test system: granular corneal degeneration; test: Example 19: corneal degeneration; type: in vivo, human
[16] = test system: chorioretinal atrophy; test: Example 23: chorioretinal atrophy; type: in vivo, human; conditions: person, 1 mg/l
[17] = test system: diabetic retinopathy; test: Example 24: diabetic retinopathy; type: in vivo, human
[18] = test system: normal tension glaucoma; test: Example 9: normal tension glaucoma patient; type: in vivo, human
Experimental: The patient is person diagnosed as normal tension glaucoma. Water-soluble 17β-estradiol inclusion product (Cyclodextrin-encapsulated 17β-estradiol available from SIGMA CO. […] To the above-mentioned patient, 1 drop (25 μl) of eye drops was dropped per one eye once every morning for 10 days.

[19] = test system: high intraocular pressure open-angle glaucoma; test: Example 10: high intraocular pressure open-angle glaucoma patient; type: in vivo, human; set-up: intraocular pressure, right: dose or concentration left out as unconfirmed
Experimental: The patient is person diagnosed as high intraocular pressure open-angle glaucoma. Water-soluble 17β-estradiol inclusion product (Cyclodextrin-encapsulated 17β-estradiol available from SIGMA CO. […] To the above-mentioned patient, 1 drop (25 μl) of eye drops was dropped once every morning for a week.

## C[C@]12CC[C@@H]3c4ccc(O)cc4CC[C@H]3[C@@H]1CC[C@@H]2O [17β-estradiol]
[1]; 25 μl (1 drop) of 100 mg/l at 1 PM, after 3.5 hours, before 14 mmHg
  intraocular pressure: 10 mmHg
[1]; after 25 μl drop at 1 PM
  time the intraocular pressure effect continued: ≥ 5 h
[1]; after washing
  time the lowering effect of intraocular pressure continued: ≥ 5 h
[1]; after washing with 100 mg/l eye washes at 1 PM
  time of maximum dropping of intraocular pressure: 50 min
[1]; high-pressure eye, 45 minutes after second washing
  intraocular pressure: 13 mmHg
[1]; high-pressure eye, next day 9 AM, before further administration
  intraocular pressure: 18 mmHg
[1]; high-pressure eye, second day, 1 hour 50 minutes after third 25 μl drop
  intraocular pressure: 12 mmHg
[1]; high-pressure eye, second day, 3 hours 15 minutes after 25 μl drop
  intraocular pressure: 13 mmHg
[1]; high-pressure eye, second day, 3 hours 15 minutes after second 25 μl drop
  intraocular pressure: 13 mmHg
[1]; high-pressure eye, third day 3:15 PM
  intraocular pressure: 12 mmHg
[1]; high-pressure eye, third day 6 PM
  intraocular pressure: 11 mmHg
[1]; high-pressure eye, third day 9 AM before administration
  intraocular pressure: 10 mmHg
[1]; high-pressure eye, third day noon, 3 hours after 25 μl drop
  intraocular pressure: 9 mmHg
[1]; rabbit with one high-pressure eye, 24 mmHg before, 15 minutes after washing at 5 PM
  intraocular pressure: 15 mmHg
[2]; after treatment, before 0.1
  visual acuity Vs: 0.3
[2]; after treatment, before 0.8
  Vs corrected vision: 1.5
[2]; person, left eye, 10 mg/l, 1 drop (50 μl) twice a day, a week
  macular edema: macular edema was lightened
[3]
  time in which the disease was cured: 3 weeks
[4]; 1 mg/l once a day, fourth day
  eye discharge: eye discharge was increased
[4]; person, 1 mg/l, 1 drop (50 μl) once a day
  keratitis superficialis diffusa: cured at the fourth day
[5]
  iridocyclitis outcome: inflammatory cells in anterior chamber disappeared
[6]
  near vision after correction Vs (30 cm): 0.7
[7]
  time until hemorrhage disappeared: 45 days
[8]
  asthenopia: asthenopia was lightened
[9]; after 3 hours
  near point, left eye: 24 cm
[9]; in vivo
  far point, average: 41±2 cm
  maximum improvement in refraction (near point): 5 cm
[9]; person, 100 mg/l, 1 drop (25 μl), after 1 hour
  near point, left eye: 27 cm
[10]; after 14 days, initiation 0.09
  visual acuity Vs: Vs = 0.1 × IOL (0.1)
[10]; after 14 days, initiation 0.1
  Vs vision after correction: Vs = 0.1 × IOL (0.1)
[10]; after 42 days
  Vs vision after correction: 0.1
  visual acuity Vs: 0.09
[10]; after 77 days
  Vs vision after correction: 0.15
  visual acuity Vs: 0.1
[10]; after 115 days
  Vs vision after correction: 0.2
  visual acuity Vs: 0.09
[10]; patient's statement after 42 days, overall
  mental state: improvement in mental state; also recorded: be encouraged
[11]
  dynamic visual acuity (KV-100): abruptly improved
[12]; administered 1 minute before vs after irradiation
  appearance of cataract, pre-administered vs post-administered group: less appearance of cataract
[12]; eye drops 0.1 g/l or 0.01 g/l, 1 drop (50 μl), pre- and post-administered groups, vs PBS control
  occurrence of cataract at the tenth day: occurrence of cataract had scarcely observed
[13]; before 2906
  number of left eye endothelial cells: 3496 per mm^2
[13]; person, 1 mg/l, 1 drop (50 μl) once a day, before 2801
  number of right eye endothelial cells: 3410 cells/mm²
[14]
  photopsia symptom: the symptom was lightened
[15]; (1) 2 weeks, before n·c
  Vs vision after correction: 0.8
[15]; (1) person, left eye, 1 mg/l, 1 drop twice a day, 2 weeks, before 0.6 (n·c)
  visual acuity Vs: 0.4
[16]; 1 drop (50 μl) once a day for 1 month, before 0.1
  vision after correction, left eye: 0.3
[16]; 50 μl once a day for 1 month, before 0.08 (n·c)
  vision after correction, right eye: 0.2
[17]; after about 100 days
  retinal bleeding: retinal bleeding was disappeared
[17]; person, 1 mg/l, 1 drop (50 μl) once everyday, after about 2 months
  retinal bleeding, photograph of eyegrounds: slightly improved
[18]; after 10 days
  visual field by Octopus 1-2-3: both eyes extremely well improved
[18]; after 10 days, before 12
  intraocular pressure, left: 9 mmHg
[18]; person, 100 mg/l, 1 drop (25 μl) every morning for 10 days, before 14
  intraocular pressure, right: 12 mmHg
[19]; after a week, before 24
  intraocular pressure, left: 18 mmHg
[19]; after a week, progressed defect before
  visual field, left eye: slightly improved
[19]; after a week, slight defect before
  visual field, right eye: substantially normally recovered
[19]; at 3 weeks
  intraocular pressure, left: 19 mmHg
  intraocular pressure, right: 20 mmHg
[19]; person, inclusion product […], 1 drop (25 μl) every morning, after a week, before 23
  intraocular pressure, right: 16 mmHg
